Assay results as given in patent US11555014B2, “High penetration prodrug compositions of prostaglandins and related compounds” (Techfields Pharma Co., Ltd., priority 2006, dated 2023).

Assays:
[1] = In vitro penetration rate across isolated human skin in modified Franz cells; conditions: for In vitro penetration rate (apparent flux), parent compounds: 10% suspension in pH 7.4 phosphate buffer (0.2 M), n=5, lowest detectable flux 1 μg/cm^2/h; for In vitro penetration rate (apparent flux), prodrug compounds: 10% solution in pH 7.4 phosphate buffer (0.2 M), n=5
Method: The penetration rates of HPPs and their parent drugs through human skin were measured in vitro by modified Franz cells. The Franz cells have two chambers, the top sample chamber and the bottom receiving chamber. The human skin tissue (360-400 μm thick) that separates the top and the receiving chambers was isolated from the anterior or posterior thigh areas.
The compound tested (2 mL, 20% in 0.2 M phosphate buffer, pH. 7.4) were added to the sample chamber of a Franz cell. The receiving chamber contains 10 ml of 2% bovine serum albumin in saline which was stirred at 600 rpm. The cumulative amounts of the tested compounds penetrating the skin versus time were determined by high-performance liquid chromatography (HPLC) method.

cat eye = test: Irritative effect or ocular discomfort in the cat eye after topical application; type: in vivo; conditions: first 2 hours, scale 0 (no discomfort) to 4 (maximal irritation, complete lid closure)
Method: Irritative effect or ocular discomfort in the cat eye of naturally occurring and modified prostaglandins and their novel prodrugs were evaluated during the first hours after the topical application of the respective test drug. The ocular discomfort was graded on a scale from 0 to 4, 0 indicating complete absence of any signs of discomfort, and 4 indicating maximal irritation as obvious from complete lid closure.

rabbit eye = test: Conjunctival hyperemia in the rabbit eye after topical application; type: in vivo; conditions: first 2 hours, scale 0 (no hyperemia) to 4 (marked hyperemia with conjunctive chemosis)
Method: Conjunctival hyperemia in the rabbit eye of naturally occurring and modified prostaglandins and their novel prodrugs was evaluated during the first 2 hours after topical application of the respective test drug. The conjunctival hyperemia was graded on a scale from 0 to 4, 0 indicating complete absence of any hyperemia, and 4 indicating marked hyperemia with conjunctive chemosis.

[2] = tested on: cats with ocular hypertension; test: Intraocular pressure (IOP) reduction in cats with ocular hypertension produced by laser trabeculoplasty; type: in vivo, cat
Method: The ability of certain compounds of the present invention to reduce intraocular pressure (IOP) was evaluated in cats with ocular hypertension produced by previously done laser trabeculoplastry. IOP was determined with a pneumatonometer after light corneal anesthesia with dilute proparacaine. Baseline IOP was determined prior to treatment with the test compound aqueous solution. 6 divided doses were administered over a period of 3 days (once every 12 hours). IOP was determined 24 hours after the initial dose and then once every 12 hours. The therapeutically efficient amount is typically between 0.001 and 0.01% in pH 7.2 phosphate buffer (0.1 M). The treatment was carried out in that one drop (about 30 micro liter) of the composition. The results of N,N-diethylaminoethyl 11,15-dihydroxy-9-oxoprost-13-en-1-oate.AcOH (A), N,N-diethylaminoethyl 11,15-dihydroxyl-9-oxoprosta-5,13-dien-1-oate.AcOH (B), N,N-diethylaminoethyl 9,11,15-trihydroxyprosta-5,13-dien-1-oate.AcOH(C), N,N-diethylaminoethyl 9,11-dihydroxy-15-keto-20-ethylprost-5,13-dien-1-oate.AcOH (9,11-dihydroxy-15-keto-20-ethylprostaglandin F2α N,N-diethylaminoethyl ester) (D), N,N-diethylaminoethyl (Z)-7-{(1R,2R,3R,5S)-3,5-dihydroxy-2-[(1E,3R)-3-hydroxy-4-[(α,α,α-trifluoro-m-tolyl)oxy]-1-butenyl]cyclopentyl}-5-heptenoate.AcOH (E), N,N-diethylaminoethyl (Z)-7{(1R,2R,3R,5S)-3,5-dihydroxy-2-[(3R)-3-hydroxy-5-phenylpentyl]cyclopentyl}-5-heptenoate.AcOH (F), and N,N-diethylaminoethyl (Z)-7-{(1R,2R,3R,5S)-3,5-Dihydroxy-2-[(1E,3S)-3-hydroxy-5-phenyl-1-pentenyl]cyclopentyl}-heptenoate.AcOH (G) are shown in Table 2.

[3] = dose 0.001%, one drop topical every 12 hours, 6 doses

Compound | In vitro penetration rate (apparent flux), parent compounds [1] | In vitro penetration rate (apparent flux), prodrug compounds [1] | further results
COC(=O)CCC=C=CCC1C(O)CC(O)C1/C=C/C(O)COc1ccccc1 (centres unmarked) [fenprostalene, reference compound] | 0.001 mg/cm^2/h |  | 
CC(C)OC(=O)CCC/C=C\C[C@@H]1[C@@H](CC[C@@H](O)CCc2ccccc2)[C@H](O)C[C@@H]1O [Latanoprost, 13,14-dihydro-17-phenyl-18,19,20-trinor PGF2α isopropyl ester, reference compound] | 0.001 mg/cm^2/h |  | Degree of irritative effect (cat eye; dose 0.001% topical): 2.5
CCCCC[C@H](O)/C=C/[C@@H]1[C@@H](C/C=C\CCCC(=O)O)[C@@H](O)C[C@H]1O [PGF2α, reference compound] |  |  | Degree of irritative effect (cat eye; dose 0.001% topical): 3.5; Degree of irritative effect (conjunctival hyperemia) (rabbit eye; dose 0.001% topical): 4
CCCCC(C)(C)[C@H](O)/C=C/[C@H]1[C@H](O)CC(=O)[C@@H]1CCCC/C=C/C(=O)OC [Gemeprost, reference compound] | 0.001 mg/cm^2/h |  | 
CC(=O)O.CCN(CC)CCOC(=O)CCCC=CCC1C(O)CC(O)C1C=CC(O)COc1cccc(C(F)(F)F)c1 (centres unmarked) [N,N-diethylaminoethyl 7-{3,5-dihydroxy-2-[3-hydroxy-4-(3-trifluoromethylphenoxy)-1-butenyl]cyclopentyl}-5-heptenoate•AcOH] |  | 0.86 mg/cm^2/h | 
O=C(O)CCC/C=C\C[C@@H]1[C@@H](/C=C/[C@@H](O)COc2cccc(C(F)(F)F)c2)[C@H](O)C[C@@H]1O (racemic) [Fluprostenol, reference compound] | 0.001 mg/cm^2/h |  | 
CC(=O)O.CCN(CC)CCOC(=O)CCCC=CCC1C(O)CC(O)C1C=CC(O)COc1cccc(Cl)c1 (centres unmarked) [N,N-diethylaminoethyl 7-{2-[4-(3-chlorophenoxy)-3-hydroxy-1-butenyl]-3,5-dihydroxycyclopentyl}-5-heptenoate•AcOH] |  | 0.92 mg/cm^2/h | 
CC(=O)O.CCCCC(C)(O)CC=C[C@H]1C(O)CC(=O)[C@@H]1CCCCCCC(=O)OCCN(CC)CC (some centres unmarked) [N,N-diethylaminoethyl 11,16-dihydroxy-9-oxo-16-methylprost-13-en-1-oate•AcOH] |  | 1.09 mg/cm^2/h | 
CC(=O)O.CCCCCC(O)C=C[C@H]1C(O)CC(O)[C@@H]1CCCCCCC(=O)OCCN(CC)CC (some centres unmarked) [N,N-diethylaminoethyl 9,11,15-trihydroxyprost-13-en-1-oate•AcOH] |  | 0.85 mg/cm^2/h | 
CC(=O)O.CCCCCC(O)C=C[C@H]1C(O)CC2OC(=CCCCC(=O)OCCN(CC)CC)C[C@@H]21 (some centres unmarked) [N,N-diethylaminoethyl 6,9-epoxy-11,15-dihydroxyprosta-5,13-dien-1-oate•AcOH] |  | 1.11 mg/cm^2/h | 
O=C(O)CCC/C=C\CC1C(O)CC(O)C1/C=C/C(O)COc1cccc(Cl)c1 (centres unmarked) [Cloprostenol, reference compound] | 0.001 mg/cm^2/h |  | 
CC(=O)O.CCN(CC)CCOC(=O)CCCC=CCC1C(=O)CC(O)C1C=CC(O)COc1ccccc1 (centres unmarked) [N,N-diethylaminoethyl 7-[3-hydroxy-2-(3-hydroxy-4-phenoxy-1-butenyl)-5-oxocyclopentyl]-5-heptenoate•AcOH] |  | 1.01 mg/cm^2/h | 
CCCCC(C)(O)C/C=C/[C@H]1[C@H](O)CC(=O)[C@@H]1CCCCCCC(=O)OC (mixture of isomers) [Misoprostol, reference compound] | 0.001 mg/cm^2/h |  | 
CC(=O)O.CCCCCC(O)C=C[C@H]1C(O)CC(=O)[C@@H]1CC=CCCCC(=O)OCCN(CC)CC (some centres unmarked) [N,N-diethylaminoethyl 11,15-dihydroxy-9-oxoprosta-5,13-dien-1-oate.AcOH] |  | 1.10 mg/cm^2/h | 
CCCCC[C@H](O)/C=C/[C@H]1[C@H](O)CC(=O)[C@@H]1CCCCCCC(=O)O [PGE1, reference compound] |  |  | Degree of irritative effect (cat eye; dose 0.001% topical): 4; Degree of irritative effect (conjunctival hyperemia) (rabbit eye; dose 0.001% topical): 4
CC(=O)O.CCN(CC)CCOC(=O)CCC=C=CCC1C(O)CC(O)C1C=CC(O)COc1ccccc1 (centres unmarked) [N,N-diethylaminoethyl 7-[3,5-dihydroxy-2-(3-hydroxy-4-phenoxy-1-butenyl)cyclopentyl]-4,5-heptadien-1-oate•AcOH] |  | 0.81 mg/cm^2/h | 
CCCCC[C@H](O)/C=C/[C@@H]1[C@H]2C/C(=C/CCCC(=O)O)O[C@H]2C[C@H]1O [PGI2, prostacyclin, reference compound] | 0.001 mg/cm^2/h |  | 
CCCCCC(C)(O)/C=C/[C@@H]1[C@@H](CC=C=CCCC(=O)OC)[C@@H](O)C[C@H]1O (some centres unmarked) [Prostalene, reference compound] | 0.001 mg/cm^2/h |  | 
CS(=O)(=O)NC(=O)CCC/C=C\C[C@H]1C(=O)C[C@@H](O)[C@@H]1/C=C/[C@@H](O)COc1ccccc1 [Sulprostone, reference compound] | 0.001 mg/cm^2/h |  | 
CC(=O)O.CCCCC(C)(C)C(O)C=C[C@H]1C(O)CC(=O)[C@@H]1CCCCC=CC(=O)OCCN(CC)CC (some centres unmarked) [N,N-diethylaminoethyl 11,15-dihydroxy-16,16-dimethyl-9-oxoprosta-2,13-dien-1-oate•AcOH] |  | 0.88 mg/cm^2/h | 
CCCCC[C@H](O)/C=C/[C@H]1[C@H](O)CC(=O)[C@@H]1C/C=C\CCCC(=O)O [PGE2, reference compound] | 0.001 mg/cm^2/h |  | Degree of irritative effect (cat eye; dose 0.001% topical): 3.5; Degree of irritative effect (conjunctival hyperemia) (rabbit eye; dose 0.001% topical): 4
CC(=O)O.CCN(CC)CCOC(=O)CCC/C=C\C[C@@H]1[C@@H](/C=C/[C@@H](O)CCc2ccccc2)[C@H](O)C[C@@H]1O [N,N-diethylaminoethyl (Z)-7-{(1R,2R,3R,5S)-3,5-Dihydroxy-2-[(1E,3S)-3-hydroxy-5-phenyl-1-pentenyl]cyclopentyl}-heptenoate.AcOH] |  | 0.85 mg/cm^2/h | Intraocular pressure, 24 hours after administration [2, 3]: 15.2 ± 0.6; Intraocular pressure, 36 hours after administration [2, 3]: 15.4 ± 0.5; Intraocular pressure, 48 hours after administration [2, 3]: 15.5 ± 0.4; Intraocular pressure, 60 hours after administration [2, 3]: 15.4 ± 0.6; Intraocular pressure, 72 hours after administration [2, 3]: 15.4 ± 0.5; Intraocular pressure, baseline ([2]; prior to treatment, group dosed 0.001%): 22.4 ± 0.6; Degree of irritative effect (cat eye; dose 0.001% topical): 1; Degree of irritative effect (conjunctival hyperemia) (rabbit eye; dose 0.001% topical): 1
CCCCC[C@H](O)/C=C/[C@@H]1[C@@H](CCCCCCC(=O)O)[C@@H](O)C[C@H]1O [PGE1α, reference compound] | 0.001 mg/cm^2/h |  | 
CCCCCCCC(=O)CC[C@@H]1[C@@H](C/C=C\CCCC(=O)O)[C@@H](O)C[C@H]1O [Unoprostone, 13,14-dihydro-15-keto-20-ethyl Prostaglandin F2α, reference compound] | 0.001 mg/cm^2/h |  | Degree of irritative effect (cat eye; dose 0.01% topical): 2.5; Degree of irritative effect (conjunctival hyperemia) (rabbit eye; dose 0.01% topical): 2.5
CC(=O)O.CCCCCC(C)(O)C=C[C@H]1C(O)CC(O)[C@@H]1CC=C=CCCC(=O)OCCN(CC)CC (some centres unmarked) [N,N-diethylaminoethyl 9,11,15-trihydroxy-15-methylprosta-4,5,13-trien-1-oate•AcOH] |  | 0.90 mg/cm^2/h | 
CCCCC[C@](C)(O)/C=C/[C@@H]1[C@@H](C/C=C\CCCC(=O)O)[C@@H](O)C[C@H]1O [Carboprost, reference compound] | 0.001 mg/cm^2/h |  | 
CCNC(=O)CCC/C=C\C[C@@H]1[C@@H](/C=C/[C@@H](O)CCc2ccccc2)[C@H](O)C[C@@H]1O [Bimatoprost, reference compound] | 0.001 mg/cm^2/h |  | Degree of irritative effect (cat eye; dose 0.001% topical): 2.5; Degree of irritative effect (conjunctival hyperemia) (rabbit eye; dose 0.001% topical): 2.5
